Assay results as given in patent US7713690B1, “Luminous bacteria and methods for the isolation, identification and quantitation of toxicants” (priority 1991, dated 2010).

Columns and labels:
[1] = system: Vibrio fischeri; test: Metals spotted on chromatography paper sheet, dried, exposed to luminescent bacteria; type: cell-based; settings: no chromatography separation
Text: Upon spotting of the various metals along one side of a chromatography paper sheet, the sample spots were allowed to dry. Upon drying, the spotted sheets were exposed to the luminescent bacteria Vibrio fischeri.

[2] = system: Vibrio fischeri; test: Inhibition of luminescence of luminescent bacteria (general statements); type: cell-based

Compound	visualization of heavy metal salts by luminescent bacteria [1]	inhibition of luminescence of Vibrio fischeri [2]
mercury	able to visualize the presence	–
[Cd] [cadmium]	able to visualize the presence	–
[Ca+2] [calcium ion]	–	Neither does the luminescence of the Vibrio fischeri appear to be immediately inhibited
lead	able to visualize the presence	–
